Entries after “also recorded” stand apart in the source; their conditions may differ.
What was measured:
Format in all cases: cell-based, human
[1] = tested on: primary normal breast cells; assay: Growth of primary normal breast cells in suspension culture; conditions: serum free breast media, 7 days
Experimental: FIG. 6 is a graphical representation of primary normal breast cells in suspension culture. 10^4 primary normal breast cells were cultured in 500 μl serum free breast media containing the indicated concentration of each of the growth factors (OSM and […]). After 7 days culture viable cells were counted using a hemacytometer. Cell numbers reported here are the results of 1 experiment, performed in triplicate.
Sterile normal breast tissue was obtained from reduction mammoplasty surgery. […] After 18 hours the mixture was centrifuged at 600 RCF/5 min, the supernatant discarded and the remaining cell pellet washed twice in RPMI-1640 supplemented with 10% (v/v) (v/v) BCS. […] Single cells adhered to the culture flasks and from these islands of cells epithelial cells grew. The media was subsequently removed and replaced with serum-free breast media. Partial trypsinisation removed any contaminating fibroblasts and the cells remaining were 95-100% epithelial. Cells were subsequently grown for approximately 30 days in the serum free breast media.

MCF-7 cells [2] = assay: Cell cycle analysis by flow cytometry (DNA content); conditions: MCF-7, serum-free medium
Experimental: FIG. 9 is a graphical representation showing the effect of OSM on cell cycle. MCF-7 cells treated with OSM while growing in serum-free medium were harvested by treatment with trypsin and stained for DNA content analysis by flow cytometry. Cell cycle distributions were calculated by computer fitting of the resultant histograms. […] FIG. 10(b) represents data from 2 experiments (performed in triplicate) where the number of cells in S phase are represented as a percentage of the corresponding untreated control value.
Cell cycle distributions were calculated by computer fitting of the resultant histograms. Results represent the combined data from 3 experiments (performed in triplicate) where the number of cells in S phase are represented as a percentage of the corresponding untreated control value.
Cell cycle analysis was performed in serum-free medium (Sigma). Analysis was performed 2-4 days after cells were washed and re-cultured in serum-free medium. Growth factors were added to the medium as indicated. At the times shown thereafter, cells were harvested with 0.05% (w/v) trpsin-0.02% (w/v) EDTA. The cells were resuspended in serum-free tissue culture medium and after cell counting using a hemacytometer, stained for later DNA analysis by the addition of 0.25% prothidium iodide in the presence of 0.2% (v/v) Triton X-100. DNA histograms were obtained by using a FACScan flow cytometer (Becton Dickinson Immunocytochemistry Systems) and the cell cycle phase distribution was estimated by using the manufacturer's DNA analysis software (Cellfit). Each histogram contained 10,000 events.

MCF-7 cells [3] = assay: Northern analysis of mRNA expression after OSM; conditions: OSM 10 ng/ml
Experimental: FIG. 12 is a photographic representation showing effect of OSM on the expression of Transforming Growth Factor α (TGFα), Epidemal Growth Factor Receptor (EGFR), Prolactin Receptor (PRLR), Estrogen Receptor (ER) and LIF mRNA. Cells growing in the presence of 10% (v/v) BCS were treated with OSM (10 ng/ml) and at the indicated time points duplicate 150 cm^2 flasks were harvested and mRNA extracted for Northern analysis. Results for control cells (C) are also shown. The same filter has been probed successively with a ^32P-labelled cDNA corresponding to each mRNA species. mRNA loading was evaluated by reprobing the filter with a fragment complementary to GAPDH. mRNA species of the following sizes were obtained: TGFα, 4.8 kb; PRLR, 10.5 and 8.6 kb; EGFR, 10.5 and 5.8 kb; ER, 6.5 and 3.8 kb and LIF, approx. 4.8 kb.
Cells havested from duplicate flasks were pooled and poly A+ mRNA extracted by an oligo-dT cellulose procedure (Boehringer Mannheim). Northern analysis was performed using 5 μg RNA per lane. Membranes (Hybond-C extra-Amersham) were hybridised (42° C. overnight) with probes labelled with α-^32P dCTP (bresatec). The membranes were washed at a stringency of 0.2× SSC (30 mM NaCl, 3 mM sodium citrate, pH 7.0)-0.1% (w/v) sodium dodecyl sulfate at 65° C. and exposed to Kodak X-Omat film at −70° C. mRNA loading was estimated by hybridising membranes with a 1.3 kb cDNA complementary to GAPDH.
Cells growing in the presence of 10% (v/v) BCS were treated with OSM (10 ng/ml) and at the indicated time points duplicate 150 cm^2 flasks were harvested and mRNA extracted for Northern analysis. Results for control cells (C) are also shown. The same filter has been probed successively with a ^32P-labelled cDNA corresponding to each mRNA species. mRNA loading was evaluated by reprobing the filter with a fragment complementary to GAPDH. mRNA species of the following sizes were obtained: TGFα, 4.8 kb; PRLR, 10.5 and 8.6 kb; EGFR, 10.5 and 5.8 kb; ER, 6.5 and 3.8 kb and LIF, approx. 4.8 kb.

ER in MCF-7 cells = assay: ER expression by antibody staining on chamber slides; conditions: MCF-7, 6 days
Experimental: (§1) MCF-7 cells were grown on chamber slides for 6 days in RPMI/10% (v/v) BCS with the following growth factors, prior to being stained with an antibody specific for ER. […] Cells stained brown indicate ER positivity.
as §1

BT-549 = assay: Cell morphology after exposure to OSM; conditions: BT-549 exposed to OSM
From the text: (§2) The action of IL-6, LIF, OSM CNTF and IL-11 was examined on 4 breast cancer cell lines grown in monolayer culture. Striking changes in the morphology of cells were observed. FIG. 15 compares morphology of untreated cells with cells exposed to OSM. […] This was associated with the appearance of decreased intercellular adhesion or cellular contraction. These changes were quite marked by day 14.

T-47D cells = assay: Cell morphology after exposure to OSM; conditions: T-47D cultured with OSM
From the text: as §2

MDA-MB-231 cells = assay: Cell morphology after exposure to OSM; conditions: MDA-MB-231 exposed to OSM
Experimental: FIG. 15 is a photographic representation showing cell morphology after exposure to OSM. MCF-7 cells from control cultures (Panel A) and appearance of cells after culture for 14 days in OSM (10 ng/ml) (Panel B). MDA-MB-231 cells from control cultures (Panel C) and appearance of cells after culture for 7 days in OSM (Panel D).
as §2

[4] = from 2 hours, maintained for 48 hours

oncostatin M [OSM]
effect on proliferation (in words) [1]: profoundly inhibited the proliferation | effect on S phase fraction (in words) (MCF-7 cells [2]): marked decrease in the S phase cells; also recorded: decreased | effect on percentage of cells in G1 phase (in words) (MCF-7 cells [2]): concomitant increase in the percentage of cells in G1 phase | number of cells in S phase as percentage of control cells (MCF-7 cells [2]; by 24 hour): 50% | percentage of cells in S phase following treatment (MCF-7 cells [2]; decreases from approximately 15% over a 72 hour time period): ~8% | abundance of TGFα transcript (in words) (MCF-7 cells [3]): equivalent to control cells | level of LIF transcript (in words) (MCF-7 cells [3]): upregulates | elevation of EGFR mRNA abundance (MCF-7 cells [3]; between 4-12 hours): at least 5 fold | level of expression of Estrogen Receptor (ER) mRNA (in words) (MCF-7 cells [3]; [4]): down regulate | level of expression of Prolactin Receptor (PRLR) mRNA (in words) (MCF-7 cells [3]; [4]): down regulate | cells staining very weakly for ER (ER in MCF-7 cells): 50% | cell morphology (in words) (BT-549): Transformation to a fibroblastic phenotype | cell morphology (in words) (T-47D cells): more rounded in appearance | cell morphology (in words) (MDA-MB-231 cells): Transformation to a fibroblastic phenotype

— patent publication US20020106347A1, “Cytokines and their use in treatment and/or prophylaxis of breast cancer” (priority 1995, published 2002)
